Measured values as given in ChEMBL document CHEMBL1201861, “Genomics of Drug Sensitity in Cancer screening data, Wellcome Trust Sanger Institute”.

Tests used:
Test in all cases: cells
COLO-741 = assay type: functional, cell-based, Homo sapiens; conditions: Homo sapiens, COLO-741
Description: SANGER: Inhibition of human COLO-741 cell growth in a cell viability assay.

CP66-MEL = assay type: functional, cell-based, Homo sapiens; conditions: Homo sapiens, CP66-MEL;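 further: growth inhibition of CP66-MEL cells determined in a cell viability assay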
Description: SANGER: Inhibition of human CP66-MEL cell growth in a cell viability assay.

CW-2 = assay type: functional, cell-based, Homo sapiens; conditions: Homo sapiens, CW-2;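 further: growth inhibition of CW-2 cells, read out by a cell viability assay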
Description: SANGER: Inhibition of human CW-2 cell growth in a cell viability assay.

EFO-21 = assay type: functional, cell-based, Homo sapiens; conditions: Homo sapiens, EFO-21;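 further: growth inhibition of EFO-21 cells measured with a viability assay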
Description: SANGER: Inhibition of human EFO-21 cell growth in a cell viability assay.

ES4 = assay type: functional, cell-based, Homo sapiens; conditions: Homo sapiens, ES4;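 further: growth inhibition of human ES4 cells, read out by a cell viability assay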
Description: SANGER: Inhibition of human ES4 cell growth in a cell viability assay.

G-402 = assay type: functional, cell-based, Homo sapiens; conditions: Homo sapiens, G-402
Description: SANGER: Inhibition of human G-402 cell growth in a cell viability assay.

HCC1569 = assay type: functional, cell-based, Homo sapiens; conditions: Homo sapiens, HCC1569;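 further: growth inhibition of human HCC1569 cells, read out with a cell viability assay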
Description: SANGER: Inhibition of human HCC1569 cell growth in a cell viability assay.

HCC2218 = assay type: functional, cell-based; conditions: Homo sapiens;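 further: cell viability assay read-out, with IC50 given as the concentration that inhibits growth of the cell line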
Description: SANGER: Inhibition of human HCC2218 cell growth in a cell viability assay.

HCC 2998 = assay type: functional, cell-based, Homo sapiens; conditions: Homo sapiens, HCC 2998;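 further: growth inhibition of human HCC2998 cells, measured with a cell viability read-out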
Description: SANGER: Inhibition of human HCC2998 cell growth in a cell viability assay.

HD-MY-Z = assay type: functional, cell-based, Homo sapiens; conditions: Homo sapiens, HD-MY-Z;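 further: growth inhibition of HD-MY-Z cells, read out with a cell viability assay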
Description: SANGER: Inhibition of human HD-MY-Z cell growth in a cell viability assay.

HOP-92 = assay type: functional, cell-based, Homo sapiens; conditions: Homo sapiens, HOP-92;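 further: cell viability readout, with IC50 reflecting inhibition of HOP-92 cell growth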
Description: SANGER: Inhibition of human HOP-92 cell growth in a cell viability assay.

HTC-C3 = assay type: functional, cell-based, Homo sapiens; conditions: Homo sapiens, HTC-C3;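 further: inhibition of cell growth, read out with a cell viability assay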
Description: SANGER: Inhibition of human HTC-C3 cell growth in a cell viability assay.

IGR-1 = assay type: functional, cell-based, Homo sapiens; conditions: Homo sapiens, IGR-1;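 further: growth inhibition of human IGR-1 cells, read out with a cell viability assay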
Description: SANGER: Inhibition of human IGR-1 cell growth in a cell viability assay.

J82 = assay type: functional, cell-based; conditions: Homo sapiens;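 further: growth inhibition of J82 cells, read out with a cell viability assay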
Description: SANGER: Inhibition of human J82 cell growth in a cell viability assay.

JAR = assay type: functional, cell-based, Homo sapiens; conditions: Homo sapiens, JAR;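 further: growth inhibition of human JAR cells determined with a cell viability assay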
Description: SANGER: Inhibition of human JAR cell growth in a cell viability assay.

KYSE-150 cell line = assay type: functional, cell-based, Homo sapiens; conditions: Homo sapiens, KYSE-150;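 further: growth inhibition of human KYSE-150 cells, read out with a cell viability assay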
Description: SANGER: Inhibition of human KYSE-150 cell growth in a cell viability assay.

LU-139 = assay type: functional, cell-based; conditions: Homo sapiens
Description: SANGER: Inhibition of human LU-139 cell growth in a cell viability assay.

LXF-289 cell line = assay type: functional, cell-based, Homo sapiens; conditions: Homo sapiens, LXF-289
Description: SANGER: Inhibition of human LXF-289 cell growth in a cell viability assay.

MDA-MB-175-VII = assay type: functional, cell-based, Homo sapiens; conditions: Homo sapiens, MDA-MB-175-VII
ME-180 = assay type: functional, cell-based; conditions: Homo sapiens;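 further: cell viability assay measuring growth inhibition of ME-180 cells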
Description: SANGER: Inhibition of human ME-180 cell growth in a cell viability assay.

MEG-01 = assay type: functional, cell-based; conditions: Homo sapiens;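 further: growth inhibition of MEG-01 cells, read out by a cell viability assay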
Description: SANGER: Inhibition of human MEG-01 cell growth in a cell viability assay.

MFH-ino = assay type: functional, cell-based; conditions: Homo sapiens;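 further: growth inhibition of human MFH-ino cells, read out by a cell viability assay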
Description: SANGER: Inhibition of human MFH-ino cell growth in a cell viability assay.

MIA PaCa-2 = assay type: functional, cell-based, Homo sapiens; conditions: Homo sapiens, MIA PaCa-2;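 further: growth inhibition of MIA PaCa-2 cells, read out with a cell viability assay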
Description: SANGER: Inhibition of human MIA-PaCa-2 cell growth in a cell viability assay.

MOLT-4 = assay type: functional, cell-based; conditions: Homo sapiens;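 further: growth inhibition of MOLT-4 cells, determined with a cell viability readout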
Description: SANGER: Inhibition of human MOLT-4 cell growth in a cell viability assay.

NCI-H1437 = assay type: functional, cell-based, Homo sapiens; conditions: Homo sapiens, NCI-H1437;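 further: growth inhibition of human NCI-H1437 cells, read out by a cell viability assay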
Description: SANGER: Inhibition of human NCI-H1437 cell growth in a cell viability assay.

NCI-H441 = assay type: functional, cell-based; conditions: Homo sapiens;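 further: growth inhibition of NCI-H441 cells, read out with a cell viability assay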
Description: SANGER: Inhibition of human NCI-H441 cell growth in a cell viability assay.

NCI-H446 = assay type: functional, cell-based; conditions: Homo sapiens;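 further: growth inhibition of NCI-H446 cells determined by a cell viability assay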
Description: SANGER: Inhibition of human NCI-H446 cell growth in a cell viability assay.

NCI-H520 = assay type: functional, cell-based, Homo sapiens; conditions: Homo sapiens, NCI-H520;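 further: growth inhibition of NCI-H520 cells, measured by a cell viability assay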
Description: SANGER: Inhibition of human NCI-H520 cell growth in a cell viability assay.

SNU1 = assay type: functional, cell-based; conditions: Homo sapiens;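 further: growth inhibition of human NCI-SNU-1 cells, measured with a cell viability assay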
Description: SANGER: Inhibition of human NCI-SNU-1 cell growth in a cell viability assay.

SNU-5 = assay type: functional, cell-based; conditions: Homo sapiens;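 further: cell viability readout used to measure growth inhibition in human NCI-SNU-5 cells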
Description: SANGER: Inhibition of human NCI-SNU-5 cell growth in a cell viability assay.

NOS-1 = assay type: functional, cell-based, Homo sapiens; conditions: Homo sapiens, NOS-1;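 further: growth inhibition of the human NOS-1 cell line, read out with a cell viability assay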
Description: SANGER: Inhibition of human NOS-1 cell growth in a cell viability assay.

PA-1 = assay type: functional, cell-based, Homo sapiens; conditions: Homo sapiens, PA-1;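 further: IC50 for suppression of PA-1 cell proliferation, determined with a cell viability read-out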
Description: SANGER: Inhibition of human PA-1 cell growth in a cell viability assay.

RCM-1 = assay type: functional, cell-based, Homo sapiens; conditions: Homo sapiens, RCM-1;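 further: growth inhibition of the RCM-1 line, determined with a cell viability readout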
Description: SANGER: Inhibition of human RCM-1 cell growth in a cell viability assay.

RMG-I = assay type: functional, cell-based, Homo sapiens; conditions: Homo sapiens, RMG-I;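 further: growth inhibition of human RMG-I cells, read out with a cell viability assay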
Description: SANGER: Inhibition of human RMG-I cell growth in a cell viability assay.

RPMI-8226 = assay type: functional, cell-based; conditions: Homo sapiens
Description: SANGER: Inhibition of human RPMI-8226 cell growth in a cell viability assay.

Ramos-2G6-4C10 = assay type: functional, cell-based; conditions: Homo sapiens;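 further: growth inhibition of the cell line, measured by a cell viability read-out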
Description: SANGER: Inhibition of human Ramos-2G6-4C10 cell growth in a cell viability assay.

SF-268 = assay type: functional, cell-based, Homo sapiens; conditions: Homo sapiens, SF-268;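 further: growth inhibition of SF-268 cells determined with a cell viability assay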
Description: SANGER: Inhibition of human SF268 cell growth in a cell viability assay.

SW1990 = assay type: functional, cell-based, Homo sapiens; conditions: Homo sapiens, SW1990;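 further: cell growth inhibition determined with a viability assay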
Description: SANGER: Inhibition of human SW1990 cell growth in a cell viability assay.

SW48 = assay type: functional, cell-based, Homo sapiens; conditions: Homo sapiens, SW48;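 further: growth inhibition of SW48 cells, read out with a cell viability assay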
Description: SANGER: Inhibition of human SW48 cell growth in a cell viability assay.

SW780 = assay type: functional, cell-based, Homo sapiens; conditions: Homo sapiens, SW780;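 further: growth inhibition of the cells, read out with a cell viability assay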
Description: SANGER: Inhibition of human SW780 cell growth in a cell viability assay.

T47D = assay type: functional, cell-based, Homo sapiens; conditions: Homo sapiens, T47D;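 further: growth inhibition of human T47D cells, measured with a cell viability assay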
Description: SANGER: Inhibition of human T47D cell growth in a cell viability assay.

T98G = assay type: functional, cell-based, Homo sapiens; conditions: Homo sapiens, T98G;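 further: growth inhibition of T98G cells, read out by a cell viability assay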
Description: SANGER: Inhibition of human T98G cell growth in a cell viability assay.

639-V = assay type: functional, cell-based, Homo sapiens; conditions: Homo sapiens, 639-V;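 further: growth inhibition of 639-V cells, read out with a cell viability assay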
Description: SANGER: Inhibition of human 639-V cell growth in a cell viability assay.

A-375 = assay type: functional, cell-based, Homo sapiens; conditions: Homo sapiens, A-375;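 further: growth inhibition of A375 cells, read out with a cell viability assay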
Description: SANGER: Inhibition of human A375 cell growth in a cell viability assay.

ACHN = assay type: functional, cell-based, Homo sapiens; conditions: Homo sapiens, ACHN;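 further: cell viability read-out used to gauge how strongly growth of human ACHN cells is suppressed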
Description: SANGER: Inhibition of human ACHN cell growth in a cell viability assay.

BFTC-909 = assay type: functional, cell-based, Homo sapiens; conditions: Homo sapiens, BFTC-909
Description: SANGER: Inhibition of human BFTC-909 cell growth in a cell viability assay.

BPH-1 = assay type: functional, cell-based, Homo sapiens; conditions: Homo sapiens, BPH-1;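 further: cell viability assay measuring growth inhibition of human BPH-1 cells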
Description: SANGER: Inhibition of human BPH-1 cell growth in a cell viability assay.

CAKI-1 = assay type: functional, cell-based, Homo sapiens; conditions: Homo sapiens, CAKI-1;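 further: growth inhibition of CAKI-1 cells, measured by a cell viability assay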
Description: SANGER: Inhibition of human CAKI-1 cell growth in a cell viability assay.

U-118-MG = assay type: functional, cell-based, Homo sapiens; conditions: Homo sapiens, U-118-MG
Description: SANGER: Inhibition of human U-118-MG cell growth in a cell viability assay.

VA-ES-BJ = assay type: functional, cell-based, Homo sapiens; conditions: Homo sapiens, VA-ES-BJ;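 further: growth inhibition of the VA-ES-BJ cell line, read out by a cell viability assay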
Description: SANGER: Inhibition of human VA-ES-BJ cell growth in a cell viability assay.

COLO-684 = assay type: functional, cell-based; conditions: Homo sapiens
Description: SANGER: Inhibition of human COLO-684 cell growth in a cell viability assay.

CCOc1nc(NC(=O)Cc2cc(OC)ccc2OC)cc(N)c1C#N
IC50 (COLO-741): > 10 µM
IC50 (CP66-MEL): > 10 µM
IC50 (CW-2): > 10 µM
IC50 (EFO-21): > 10 µM
IC50 (ES4): > 10 µM
IC50 (G-402): > 10 µM
IC50 (HCC1569): > 10 µM
IC50 (HCC2218): > 10 µM
IC50 (HCC 2998): > 10 µM
IC50 (HD-MY-Z): > 10 µM
IC50 (HOP-92): > 10 µM
IC50 (HTC-C3): > 10 µM
IC50 (IGR-1): > 10 µM
IC50 (J82): > 10 µM
IC50 (JAR): > 10 µM
IC50 (KYSE-150 cell line): > 10 µM
IC50 (LU-139): > 10 µM
IC50 (LXF-289 cell line): > 10 µM
IC50 (MDA-MB-175-VII): > 10 µM
IC50 (ME-180): > 10 µM
IC50 (MEG-01): > 10 µM
IC50 (MFH-ino): > 10 µM
IC50 (MIA PaCa-2): > 10 µM
IC50 (MOLT-4): > 10 µM
IC50 (NCI-H1437): > 10 µM
IC50 (NCI-H441): > 10 µM
IC50 (NCI-H446): > 10 µM
IC50 (NCI-H520): > 10 µM
IC50 (SNU1): > 10 µM
IC50 (SNU-5): > 10 µM
IC50 (NOS-1): > 10 µM
IC50 (PA-1): > 10 µM
IC50 (RCM-1): > 10 µM
IC50 (RMG-I): > 10 µM
IC50 (RPMI-8226): > 10 µM
IC50 (Ramos-2G6-4C10): > 10 µM
IC50 (SF-268): > 10 µM
IC50 (SW1990): > 10 µM
IC50 (SW48): > 10 µM
IC50 (SW780): > 10 µM
IC50 (T47D): > 10 µM
IC50 (T98G): > 10 µM
IC50 (639-V): > 10 µM
IC50 (A-375): > 10 µM
IC50 (ACHN): > 10 µM
IC50 (BFTC-909): > 10 µM
IC50 (BPH-1): > 10 µM
IC50 (CAKI-1): > 10 µM
IC50 (U-118-MG): > 10 µM
IC50 (VA-ES-BJ): > 10 µM
IC50 (COLO-684): > 10 µM

CC(=O)O[C@@H]1[C@@H](OC(C)=O)[C@@H](O)[C@H](Oc2c(-c3ccc(O)cc3)oc3cc(O)cc(O)c3c2=O)O[C@H]1C
IC50 (COLO-741): > 10 µM
IC50 (CP66-MEL): > 10 µM
IC50 (CW-2): > 10 µM
IC50 (EFO-21): > 10 µM
IC50 (ES4): > 10 µM
IC50 (G-402): > 10 µM
IC50 (HCC1569): > 10 µM
IC50 (HCC2218): 3.84 µM
IC50 (HCC 2998): > 10 µM
IC50 (HD-MY-Z): > 10 µM
IC50 (HOP-92): > 10 µM
IC50 (HTC-C3): > 10 µM
IC50 (IGR-1): > 10 µM
IC50 (J82): > 10 µM
IC50 (JAR): > 10 µM
IC50 (KYSE-150 cell line): > 10 µM
IC50 (LU-139): > 10 µM
IC50 (LXF-289 cell line): > 10 µM
IC50 (MDA-MB-175-VII): > 10 µM
IC50 (ME-180): > 10 µM
IC50 (MEG-01): > 10 µM
IC50 (MFH-ino): > 10 µM
IC50 (MIA PaCa-2): > 10 µM
IC50 (MOLT-4): > 10 µM
IC50 (NCI-H1437): > 10 µM
IC50 (NCI-H441): > 10 µM
IC50 (NCI-H446): > 10 µM
IC50 (NCI-H520): > 10 µM
IC50 (SNU1): > 10 µM
IC50 (SNU-5): > 10 µM
IC50 (NOS-1): > 10 µM
IC50 (PA-1): > 10 µM
IC50 (RCM-1): > 10 µM
IC50 (RMG-I): > 10 µM
IC50 (RPMI-8226): > 10 µM
IC50 (Ramos-2G6-4C10): > 10 µM
IC50 (SF-268): > 10 µM
IC50 (SW1990): > 10 µM
IC50 (SW48): > 10 µM
IC50 (SW780): > 10 µM
IC50 (T47D): > 10 µM
IC50 (T98G): > 10 µM
IC50 (639-V): > 10 µM
IC50 (A-375): > 10 µM
IC50 (ACHN): > 10 µM
IC50 (BFTC-909): > 10 µM
IC50 (BPH-1): > 10 µM
IC50 (CAKI-1): > 10 µM
IC50 (U-118-MG): > 10 µM
IC50 (VA-ES-BJ): > 10 µM
IC50 (COLO-684): > 10 µM

C=CCNC1=C2C[C@@H](C)C[C@H](OC)[C@H](O)[C@@H](C)/C=C(\C)[C@H](OC(N)=O)[C@@H](OC)/C=C\C=C(/C)C(=O)NC(=CC1=O)C2=O [TANESPIMYCIN]
IC50 (COLO-741): > 1 µM
IC50 (CP66-MEL): 0.61 µM
IC50 (CW-2): > 1 µM
IC50 (EFO-21): > 1 µM
IC50 (ES4): > 1 µM
IC50 (G-402): 0.0479 µM
IC50 (HCC1569): > 1 µM
IC50 (HCC2218): 0.0249 µM
IC50 (HCC 2998): 0.0735 µM
IC50 (HD-MY-Z): 0.109 µM
IC50 (HOP-92): > 1 µM
IC50 (HTC-C3): 0.265 µM
IC50 (IGR-1): 0.79 µM
IC50 (J82): 0.273 µM
IC50 (JAR): > 1 µM
IC50 (KYSE-150 cell line): 0.0524 µM
IC50 (LU-139): > 1 µM
IC50 (LXF-289 cell line): 0.00419 µM
IC50 (MDA-MB-175-VII): 0.0335 µM
IC50 (ME-180): 0.0289 µM
IC50 (MEG-01): > 1 µM
IC50 (MFH-ino): > 1 µM
IC50 (MIA PaCa-2): 0.0101 µM
IC50 (MOLT-4): > 1 µM
IC50 (NCI-H1437): 0.122 µM
IC50 (NCI-H441): > 1 µM
IC50 (NCI-H446): > 1 µM
IC50 (NCI-H520): 0.387 µM
IC50 (SNU1): 0.00207 µM
IC50 (SNU-5): 0.305 µM
IC50 (NOS-1): 0.975 µM
IC50 (PA-1): 0.954 µM
IC50 (RCM-1): > 1 µM
IC50 (RMG-I): > 1 µM
IC50 (RPMI-8226): 0.663 µM
IC50 (Ramos-2G6-4C10): > 1 µM
IC50 (SF-268): 0.643 µM
IC50 (SW1990): 0.122 µM
IC50 (SW48): 0.0504 µM
IC50 (SW780): 0.042 µM
IC50 (T47D): > 1 µM
IC50 (T98G): 0.041 µM
IC50 (639-V): 0.15 µM
IC50 (A-375): 0.128 µM
IC50 (ACHN): 0.606 µM
IC50 (BFTC-909): 0.0797 µM
IC50 (BPH-1): 0.134 µM
IC50 (CAKI-1): 0.321 µM
IC50 (U-118-MG): 0.276 µM
IC50 (VA-ES-BJ): 0.0445 µM
IC50 (COLO-684): 0.345 µM
